Results reported in PubChem BioAssay (NCI).
Where “and” joins values, the source holds several entries; their conditions need not be identical. Equal entries are not always repeated.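 How tested: cells in 96-well plates exposed to compound for 48 hours at five concentrations. Abbreviation: GI50, concentration required for 50% inhibition of growth. At the TGI there is no net growth.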

How the values were obtained:
Experiment in all cases: NCI tumour cell line growth inhibition, 48 h
RXF-631 renal = test system: RXF-631 renal
P388 leukemia = test system: P388 leukemia
SNB-78 CNS = test system: SNB-78 CNS
LXFL 529 NSCLC = test system: LXFL 529 NSCLC
XF 498 CNS = test system: XF 498 CNS
P388/ADR leukemia = test system: P388/ADR leukemia
HOP-18 NSCLC = test system: HOP-18 NSCLC
SN12K1 renal = test system: SN12K1 renal

| SMILES | GI50 (RXF-631 renal) [µM] | TGI (RXF-631 renal) [µM] | TGI (P388 leukemia) [µM] | GI50 (SNB-78 CNS) | TGI (SNB-78 CNS) | GI50 (LXFL 529 NSCLC) [µM] | TGI (LXFL 529 NSCLC) [µM] | GI50 (XF 498 CNS) [µM] | TGI (XF 498 CNS) | TGI (P388/ADR leukemia) [µM] | TGI (HOP-18 NSCLC) | TGI (SN12K1 renal) [µM] |
| --- | --- | --- | --- | --- | --- | --- | --- | --- | --- | --- | --- | --- |
| Nc1nccc2c1ncn2C1C=C(CO)C(O)C1O (stereo unspecified) | 902 | > 1000 | > 76.4 | > 1000 µM | > 1000 µM | > 1000 | > 1000 | 817 | > 1000 µM | 40.8 |  |  |
| Cc1ccc(NC(=O)CC(=O)n2nc(-c3ccccc3)c(N=Nc3ccccc3C(=O)O)c2-c2ccccc2)cc1 |  | > 100 |  |  |  |  | > 100 |  |  |  |  |  |
| Cc1ccc([S+](c2ccccc2)c2cc(C)ccc2C)cc1 (stereo unspecified) |  |  |  |  |  |  |  |  |  |  | 26.4 µM |  |
| COC[C@@H]1Cc2cc(OC)c3c(c2[C@H](c2ccc(OC)c(OC)c2)[C@H]1COC)OCO3 |  | > 100 |  |  |  |  | > 100 |  | > 100 µM |  | > 100 µM |  |
| O=NN(CCCl)C(=O)Nc1ccc(Cl)c(Cl)c1 |  |  | > 100 |  | > 100 µM |  |  |  | 99.7 µM | > 100 | > 26.2 µM | > 100 |
| O=C1CSc2sc(=S)sc2S1 |  |  | > 100 |  | 99.2 µM |  |  |  | > 100 µM | 97.8 | > 100 µM | > 100 |
| COc1cccc2c1C(=O)c1c(O)c3c(c(O)c1C2=O)C[C@@](O)(C(C)=O)C[C@@H]3OC1CC(N(C)C)C(O)C(C)O1 (stereo partly specified) |  |  | 0.0139 | 0.0302 µM and 0.0169 µM | 1.04 µM and 0.467 µM |  | 1 |  | 0.403 µM and 0.0877 µM | 0.135 | 0.585 µM and 2.17 µM | 0.0851 |
| O=C1NC2(NC(=O)C1=O)Nc1ccccc1S2 |  | 47.9 |  |  | > 100 µM |  | > 87.3 |  |  |  | > 100 µM |  |
